Experimental data from PubChem BioAssay (NCI).
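All cell lines were grown in 96-well plates and treated with compound for 48 hours. GI50 is the concentration that inhibits growth by half. TGI marks complete inhibition of growth.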

Legend:
Assay in all cases: growth of human tumour cells (NCI), 48 h
SN12C renal = system: SN12C renal
SNB-19 CNS = system: SNB-19 CNS
BT-549 breast = system: BT-549 breast
KM12 colon = system: KM12 colon
SF-539 CNS = system: SF-539 CNS
SW-620 colon = system: SW-620 colon
ACHN renal = system: ACHN renal
HOP-62 NSCLC = system: HOP-62 NSCLC
SR leukemia = system: SR leukemia
NCI-H23 lung = system: NCI-H23 lung

Row | Compound | GI50 (SN12C renal) [µM] | TGI (SN12C renal) [µM] | GI50 (SNB-19 CNS) [µM] | TGI (SNB-19 CNS) [µM] | GI50 (BT-549 breast) [µM] | TGI (BT-549 breast) [µM] | GI50 (KM12 colon) [µM] | TGI (KM12 colon) [µM] | GI50 (SF-539 CNS) [µM] | TGI (SF-539 CNS) [µM] | GI50 (SW-620 colon) [µM] | TGI (SW-620 colon) [µM] | GI50 (ACHN renal) [µM] | TGI (ACHN renal) [µM] | GI50 (HOP-62 NSCLC) [µM] | TGI (HOP-62 NSCLC) [µM] | GI50 (SR leukemia) [µM] | TGI (SR leukemia) [µM] | TGI (NCI-H23 lung) [µM] | GI50 (NCI-H23 lung) [µM]
1 | CCOC(=O)Cc1csc(NC(=O)C(OC(=O)c2ccc(Cl)cc2)c2ccccc2)n1 (stereo not given) | 37.8 | > 100 | 50.5 | > 100 | 25.9 | 56.9 | 38.9 | > 100 | 25.3 | 54.8 | 48.4 | > 100 | 62.1 | > 100 | 44.1 | > 100 | 13.4 | 58.7 |  | 
2 | Cn1cnc([N+](=O)[O-])c1Sc1n[nH]c(-c2ccc(Cl)cc2)n1 |  | 31.6 |  | 51 |  |  |  | 39.2 |  | 29.9 |  | 78 |  | 41.7 |  | 54.9 |  | 42 | 37.9 | 
3 | N#Cc1c(N)nc2c(c1-c1ccc(Cl)cc1)COc1ccc(F)cc1-2 | 19.1 | 47.7 |  |  | 22 | 51.2 | 29.4 | 80 | 20.1 | 40.1 | 31.1 | 97.4 | 15.9 | 52.1 | 25.1 | 75.2 |  |  | > 100 | 28.4
4 | O/N=C1/CCCC/C1=C\c1ccc(Cl)c(Cl)c1 |  | 42.3 |  | 91.6 |  |  |  |  |  | 41.1 |  | > 100 |  | 71.8 |  | > 100 |  |  | > 100 | 
5 | NC1=NN(c2ccccc2)C(=O)C1C(=O)C(=O)Nc1ccccc1 (stereo not given) |  | > 100 |  | > 100 |  |  |  | > 100 |  | > 100 |  | > 100 |  | > 100 |  | > 100 |  |  | > 100 | 
6 | Clc1ccc(-c2cnc3c(-c4ccnc(N5CCNCC5)c4)cnn3c2)cc1 | 1.7 | 3.34 | 2.02 | 4.03 | 1.6 | 3.02 | 1.87 | 3.43 | 1.74 | 3.29 | 1.78 | 3.27 |  |  | 1.92 | 3.38 | 1.6 | 4.58 | 3.66 | 1.99
7 | COc1cccc2c1C(=O)c1c(O)c3c(c(O)c1C2=O)C[C@](O)(C(=O)CO)C[C@H]3O[C@@H]1C[C@@H](NC(=O)CCCN(C)C2(c3ccc(F)cc3)CC3CCC2C3)[C@H](O)[C@@H](C)O1 (stereo not given in full) | 5.13 | 14 | 0.9 | 2.19 | 5.07 | 13.7 |  |  | 0.846 | 1.56 | 0.641 | 1.49 | 0.736 | 1.4 | 2.26 | 10.6 | 0.311 | 1.52 | 1.71 | 0.829
8 | COc1ccc(/C=C/c2onc3c(=O)n(C)nc(-c4ccccc4)c23)cc1 |  | > 100 |  | > 100 |  |  |  |  |  | > 100 |  | > 100 |  | > 100 |  | > 100 |  |  | > 100 | 
9 | CCOC(=O)C1CC(=O)C=C2CCCCC21 (stereo not given) |  | > 100 |  | > 100 |  |  |  | > 100 |  | > 100 |  | > 100 |  | > 100 |  | > 100 |  |  | > 100 | 
10 | CCCCCCOC(=O)CC1=C(C)/C(=C/c2[nH]c(-c3ccc[nH]3)cc2OC)N=C1C |  |  | 0.271 | 2.76 | 0.0865 | 1.59 | 0.0535 | 1.4 | 0.0635 | 1.27 | 0.0384 | 1.35 | 0.0663 | 0.779 | 0.0982 | 1.15 | 0.0307 | 0.182 | 1.75 | 0.101
11 | Cc1cccc2c(=O)c3c(sc12)c(NCCCNCCO)nc1ccccc13 | 1.56 | 3.12 |  |  | 1.85 | 4.27 | 1.72 | 3.25 | 1.71 | 3.09 | 1.43 | 2.99 | 1.49 | 2.81 | 1.22 | 2.75 |  |  | 3.13 | 1.66
12 | C[C@@H]1CC[C@@]2(C)OC(c3ccccc3)[C@H](CO)N2C1=O (stereo not given in full) |  | > 100 |  | > 100 |  |  |  | > 100 |  | > 100 |  | > 100 |  | > 100 |  | > 100 |  | > 100 | > 100 | 
13 | Cc1cc(-c2nc3sc(C)cn3c2/C=N/N=C(N)N)c(C)s1 | 14 | 28.3 | 18.2 | 36.2 |  |  | 2.68 | 9.62 |  |  | 3.33 | 18.4 | 18.7 | 34.4 | 3.17 | 8.64 | > 100 | > 100 | 28.2 | 14.6
14 | O=Cc1ccc(-c2ccc(-c3nc4ccccc4s3)cc2)o1 | > 100 | > 100 | > 100 | > 100 | > 100 | > 100 | 46.5 | > 100 |  |  | 89 | > 100 | > 100 | > 100 | > 100 | > 100 |  |  | > 100 | 67.7
15 | COc1ccc(Sc2[nH]c(C=O)c3ccccc23)cc1 | 14.9 | 33.1 | 4.78 | 18.5 | 2.03 | 12.1 | 3.62 | 13.7 | 10.9 | 23 | 3.72 | 16.4 | 14.9 | 28.8 | 15.5 | 29.7 |  |  | 32.3 | 14.3
16 | O=CN/C=C/c1ccccc1 |  | > 100 |  | > 100 |  |  |  | > 100 |  | > 100 |  | > 85.6 |  | > 100 |  | > 100 |  | > 100 | > 100 | 
17 | COc1ccc2c(n1)Sc1nc3ccccc3nc1N2 |  | 71.6 |  | > 100 |  | > 100 |  | > 100 |  | 50.1 |  | > 100 |  | > 100 |  | 79.5 |  |  | > 100 | 
